Columns and labels:
NCIN87 cells = experiment: CyQUANT cell proliferation assay, intestinal subtype cell line; type: cell-based; settings: DON 1, 50, 150 μM, CB839 1, 5, 25 μM, BPTES 5, 10, 25 μM, FIGS. 5 to 7
Procedure: (§1) NCIN87, an intestinal subtype cell line, and HS746T, a stem-like subtype cell line, were dispensed in a 96-well plate (black) with 5000 cells each, and replaced with glutamine-deficient culture medium (Gibco) the next day. Then, the cell lines were treated with DON (1 μM, 50 μM, 150 μM; selleckchem, cat no. S8620), CB839 (1 μM, 5 μM, 25 μM; cayman, cat no. S7655) or BPTES (5 μM, 10 μM, 25 μM; MCE, cat no. HY-12683) and the treatment time was 0 hours, and the cell culture medium was discarded at 24, […] and 72 hours, and stored in an ultra-low temperature freezer at −80° C. After culturing the cells stored in this way at room temperature, 200 μl of cell lysate containing GR dye contained in the cell viability assay kit (CyQUANT cell proliferation assay, Invitrogen) was placed in each well of the cultured cells and incubated at room temperature for 5 min. Afterwards, The intensity of fluorescence was measured at a wavelength of 480 nm and 520 nm excitation using a fluorescence photometer (thermo, varioskan flash 3001), and the measured value was standardized to the number of cells at 0 hour, quantified in %, and the value was shown in FIGS. 4 to 7.

HS746T cells [1] = experiment: CyQUANT cell proliferation / viability assay, stem-like subtype cell line; type: cell-based; settings: for cell proliferation: HS746T, DON 1, 50, 150 μM, CB839 1, 5, 25 μM, BPTES 5, 10, 25 μM, FIGS. 5 to 7; for survival of HS746T, inhibitor with glutamine deficiency vs each alone: Gln(−), PHGDH inhibitor 25 μM, SHMT inhibitor 1 μM, MTHFD2 inhibitor 0.5 μM, FIGS. 9 to 11
Procedure: as §1
As described in Example 4, after dispensing and incubating the stem-like subtype cell line HS746T, replacing it with a glutamine-deficient culture medium, administering a PHGDH inhibitor (25 μM), SHMT inhibitor (1 μM) or MTHFD2 inhibitor (0.5 μM), and using a cell viability assay kit, the survival rate measured using the cell viability assay kit was shown in FIGS. 9 to 11.

[2] = test system: glutamine-dependent liver cancer cells; settings: cited from earlier work
[3] = test system: GA077 stem-like subtype organoid; experiment: Organoid diameter by optical microscopy; type: cell-based; settings: CB839 5 μM alone, D1 to D4, FIG. 8
SEM-type GC cells [4] = experiment: Cell death by GLS/PHGDH inhibitor cotreatment and antioxidant rescue; type: cell-based; settings: addition of antioxidant
SEM-type GC cells [5] = experiment: Mitochondrial ROS estimated by MitoSOX; type: cell-based; settings: NCT503 treatment and glutamine starvation
HS746T cells [6] = experiment: Ratio of reduced (GSH) to oxidized glutathione (GSSG); type: cell-based; settings: HS746T cultured without glutamine plus PHGDH inhibition
HS746T cells [7] = experiment: Amount of NADP; type: cell-based; settings: PHGDH-inhibited cells with glutamine deficiency

| SMILES | cell proliferation (NCIN87 cells) | cell proliferation (HS746T cells [1]) | survival of HS746T, inhibitor with glutamine deficiency vs each alone (HS746T cells [1]) | further results |
| --- | --- | --- | --- | --- |
| O=C(Cc1ccccc1)Nc1nnc(CCSCCc2nnc(NC(=O)Cc3ccccc3)s2)s1 [BPTES] | inhibited | not reduced | – | – |
| O=C(Cc1cccc(OC(F)(F)F)c1)Nc1ccc(CCCCc2nnc(NC(=O)Cc3ccccn3)s2)nn1 [CB839] | inhibited | not reduced | – | antitumor effect of single-drug treatment [2]: very limited antitumor effect; organoid size (diameter) [3]: not reduced in size |
| [N-]=[N+]=CC(=O)CC[C@H](N)C(=O)O [DON] | inhibited | not reduced | – | – |
| Cc1c(N2CCN(C)[C@@H](C)C2)ccc2c3c(c(=O)oc12)CN(C(=O)c1ccc(NS(C)(=O)=O)c(OC(F)(F)F)c1)CC3 [MTHFD2i] | – | – | significant synergistic effect | – |
| CC(=O)N[C@@H](CS)C(=O)O [NAC, N-acetylcysteine] | – | – | – | rescue of cell death induced by cotreatment with CB839 and NCT503 (SEM-type GC cells [4]): partially rescued |
| Cc1cc(C)nc(NC(=S)N2CCN(Cc3ccc(C(F)(F)F)cc3)CC2)c1 [NCT503] | – | – | significant synergistic effect | mitochondrial ROS estimated by MitoSOX (SEM-type GC cells [5]): highest; ratio of reduced glutathione (GSH) to oxidized glutathione (GSSG) (HS746T cells [6]): decreased; amount of NADP (HS746T cells [7]): lowest |
| Cc1n[nH]c2c1C(c1cc(CO)cc(-c3ccccc3)c1)(C(C)C)C(C#N)=C(N)O2 (stereo not drawn) [SHMTi] | – | – | significant synergistic effect | – |

— patent US20240238287A1, “PHARMACEUTICAL COMPOSITION FOR PREVENTING OR TREATING CANCER” (priority 2021, published 2024)
